The target of one assay is T1, recombinant human Nav1.7 (Homo sapiens, UniProt Q15858).
T1 construct: expressed in transfected cells; host or cells: HEK293
The assay can be described thus: FRET-based membrane potential assay, Nav1.7. The class given is cell-based. Particulars: HEK293 cells expressing recombinant human Nav1.7; veratridine + scorpion venom depolarization.

In a further assay the target is T2, recombinant human Nav1.8 (Homo sapiens, UniProt Q9Y5Y9).
T2 construct: host or cells: HEK293
Nature of the assay: FRET-based membrane potential assay, Nav1.8. The class given is cell-based. Particulars: HEK293 cells expressing recombinant human Nav1.8; veratridine + scorpion venom depolarization.

The target of a further assay is T3, hERG channel (Kv11.1) (Homo sapiens, UniProt Q12809).
T3 construct: W. January (Wisconsin Alumni Research Foundation); host or cells: HEK-293
The assay can be described thus: hERG QPatch screening protocol (hERG current block). Particulars: HEK-293 cells stably transfected with hERG; tail current; room temperature. The class given is cell-based. The protocol:
hERG QPatch Screening Protocol
Solutions and Compound Plates:
The bath solution contained (in mM): 140 NaCl, 5 KCl, 1 MgCl2, 2 CaCl2, 5 glucose, 20 HEPES, pH=7.4. The internal solution contained (in mM): 125 K-aspartate, 20 KCl, 10 EGTA, 5 MgATP, 1 MgCl2, 5 HEPES, pH=7.3.
Compound plates were prepared with an acoustic liquid handler (Echo® 550, Labcyte), using 384-well source plates and 96-well destination plates. Compounds were delivered to the destination plates as 300 nL spots in half-log increments (1, 3, 10 and 30 mM), dissolved in dimethyl sulfoxide. Plates were solvated with bath solution (300 μL) to final concentrations (1, 3, 10 and 30 μM; 0.1% dimethyl sulfoxide) and added to the QPatch workstation.
Cells and Cell Preparation:
Human embryonic kidney (HEK-293) cells, stably transfected with the hERG channel, were obtained from Dr. C. W. January (Wisconsin Alumni Research Foundation). Cells were initially maintained at 37° C. (5% CO2 atmosphere) in MEM supplemented media. Cells were cryo-preserved in 10% dimethyl sulfoxide, 90% fetal bovine serum at 10 M cells/mL. For electrophysiological studies, cells were thawed, resuspended in media at 1.0-1.5 M cells/mL and placed on the QPatch workstation.
QPatch Electrophysiology Workstation and Experimental Protocol:
Currents were recorded using QPatch HT (Sophion), an automated planar patch-clamp system. The QPatch uses forty-eight amplifiers and a 48-chamber QPlate positioned directly on top of the headstage. To obtain high resistant seals, cells are added to each chamber and allowed to settle for 10 seconds. Negative pressure is then applied to promote cell delivery to the patch chip openings on the chamber bottom. After formation of GΩ seals, negative pressure ramps are applied to obtain intracellular access. Access resistance was initially optimized by additional pressure ramps to assure the intracellular access was adequate for voltage clamp experiments (targeted access resistance <10 MΩ). Whole-cell compensation and series resistance compensation were used at 60% (both predicted and corrected). Experiments using QPatch were conducted at room temperature.
A single application of each concentration was applied to cells. During a five-minute wash-in period, a four-second depolarizing pulse to +20 mV, followed by a five-second repolarizing pulse to −50 mV was applied once every 15 seconds from a holding potential of −80 mV. Cells were exposed to four ascending concentrations of drug in half-log intervals.
Evaluation of hERG Current Block:
hERG tail current was measured as the difference in amplitude between a […] and the end of a five-second test pulse to −50 mV, preceded by a four-second pulse to +20 mV. The hERG IC50 values for compounds were determined from tail current analysis. The IC50 was calculated with a logistic fitting routine using the following equation: y=[(A1−A2)/(1+(x/IC50))^p]A2, where A1=initial×value, A2=final×value and p=power.
Background: Block of hERG is tested as a sign of cardiac risk.

Assay [1] has as its system MIA-induced osteoarthritic pain in rats. The assay can be described thus: Osteoarthritic (OA) pain induced by sodium monoiodoacetate (MIA), hind limb grip force. The class given is in vivo. Particulars: rat MIA-OA, 20 days after MIA. The method, then: Osteoarthritic (OA) Pain Induced by Sodium Monoiodoacetate (MIA)
Pain behavior was assessed by measurement of hind limb grip force (GF) in adult osteoarthritic rats. Male Sprague Dawley rats, obtained from Charles River Laboratories, (Wilmington, Mass.), weighing 150-175 g, were injected in the unilateral knee join with a single intra-articular injection of sodium monoiodoacetate (MIA, 3 mg/rat). All rats were tested at 20 days following MIA injection. A behavioral measure of activity-induced pain was carried out. Measurements of the peak hind limb grip force were conducted by recording the maximum compressive force (CFmax), in grams of force, exerted on a hind limb strain gauge setup, in a commercially available grip force measurement system (Columbus Instruments, Columbus, Ohio).
During testing, each rat was gently restrained by grasping it around its rib cage and then allowed to grasp the wire mesh frame attached to the strain gauge. The experimenter then moved the animal in a rostral-to-caudal direction until the grip was broken. Each rat was sequentially tested twice at an approximately 2-3 minute interval to obtain a raw mean grip force (CFmax). This raw mean grip force data was in turn converted to a maximum hindlimb cumulative compressive force (CFmax), as the grams of force/kg of body weight, for each animal.
For evaluating the compound effects, the hind limb grip force was conducted 20 days following the intra-articular injection of MIA. A group of age-matched naïve (not injected with MIA) animals was added as a comparator to the drug-dosed groups. The vehicle control response for each group of MIA-treated animals was defined as the 0% response (0% effect), whereas the naïve control group was defined as the normal response and as 100% effect. The % effect for each dose group was expressed as % return of response to normalcy, compared to the naïve group. A percent maximal possible effect (% MPE) of testing compound was calculated according to the formula: (Treatment CFmax Vehicle CFmax)/Vehicle CFmax]×100). Higher % effect numbers indicate increased relief from the pain in the model, with 100% indicating a return to the level of response seen in normal (non-osteoarthritic) animals. All experiments evaluating drug effects in this model were conducted in a randomized blinded fashion.
The animals were housed in Association for Assessment and Accreditation of Laboratory Animal Care (AAALAC) approved facilities at AbbVie Inc. in a temperature-regulated environment under a controlled 12-hour light-dark cycle, with lights on at 6:00 a.m. Food and water were available ad libitum at all times except during testing. All testing was done following procedures outlined in protocols approved by AbbVie Inc.'s Institutional Animal Care and Use Committee.

Each structure is given as a SMILES string.

T1 sequence (Q15858 whole entry): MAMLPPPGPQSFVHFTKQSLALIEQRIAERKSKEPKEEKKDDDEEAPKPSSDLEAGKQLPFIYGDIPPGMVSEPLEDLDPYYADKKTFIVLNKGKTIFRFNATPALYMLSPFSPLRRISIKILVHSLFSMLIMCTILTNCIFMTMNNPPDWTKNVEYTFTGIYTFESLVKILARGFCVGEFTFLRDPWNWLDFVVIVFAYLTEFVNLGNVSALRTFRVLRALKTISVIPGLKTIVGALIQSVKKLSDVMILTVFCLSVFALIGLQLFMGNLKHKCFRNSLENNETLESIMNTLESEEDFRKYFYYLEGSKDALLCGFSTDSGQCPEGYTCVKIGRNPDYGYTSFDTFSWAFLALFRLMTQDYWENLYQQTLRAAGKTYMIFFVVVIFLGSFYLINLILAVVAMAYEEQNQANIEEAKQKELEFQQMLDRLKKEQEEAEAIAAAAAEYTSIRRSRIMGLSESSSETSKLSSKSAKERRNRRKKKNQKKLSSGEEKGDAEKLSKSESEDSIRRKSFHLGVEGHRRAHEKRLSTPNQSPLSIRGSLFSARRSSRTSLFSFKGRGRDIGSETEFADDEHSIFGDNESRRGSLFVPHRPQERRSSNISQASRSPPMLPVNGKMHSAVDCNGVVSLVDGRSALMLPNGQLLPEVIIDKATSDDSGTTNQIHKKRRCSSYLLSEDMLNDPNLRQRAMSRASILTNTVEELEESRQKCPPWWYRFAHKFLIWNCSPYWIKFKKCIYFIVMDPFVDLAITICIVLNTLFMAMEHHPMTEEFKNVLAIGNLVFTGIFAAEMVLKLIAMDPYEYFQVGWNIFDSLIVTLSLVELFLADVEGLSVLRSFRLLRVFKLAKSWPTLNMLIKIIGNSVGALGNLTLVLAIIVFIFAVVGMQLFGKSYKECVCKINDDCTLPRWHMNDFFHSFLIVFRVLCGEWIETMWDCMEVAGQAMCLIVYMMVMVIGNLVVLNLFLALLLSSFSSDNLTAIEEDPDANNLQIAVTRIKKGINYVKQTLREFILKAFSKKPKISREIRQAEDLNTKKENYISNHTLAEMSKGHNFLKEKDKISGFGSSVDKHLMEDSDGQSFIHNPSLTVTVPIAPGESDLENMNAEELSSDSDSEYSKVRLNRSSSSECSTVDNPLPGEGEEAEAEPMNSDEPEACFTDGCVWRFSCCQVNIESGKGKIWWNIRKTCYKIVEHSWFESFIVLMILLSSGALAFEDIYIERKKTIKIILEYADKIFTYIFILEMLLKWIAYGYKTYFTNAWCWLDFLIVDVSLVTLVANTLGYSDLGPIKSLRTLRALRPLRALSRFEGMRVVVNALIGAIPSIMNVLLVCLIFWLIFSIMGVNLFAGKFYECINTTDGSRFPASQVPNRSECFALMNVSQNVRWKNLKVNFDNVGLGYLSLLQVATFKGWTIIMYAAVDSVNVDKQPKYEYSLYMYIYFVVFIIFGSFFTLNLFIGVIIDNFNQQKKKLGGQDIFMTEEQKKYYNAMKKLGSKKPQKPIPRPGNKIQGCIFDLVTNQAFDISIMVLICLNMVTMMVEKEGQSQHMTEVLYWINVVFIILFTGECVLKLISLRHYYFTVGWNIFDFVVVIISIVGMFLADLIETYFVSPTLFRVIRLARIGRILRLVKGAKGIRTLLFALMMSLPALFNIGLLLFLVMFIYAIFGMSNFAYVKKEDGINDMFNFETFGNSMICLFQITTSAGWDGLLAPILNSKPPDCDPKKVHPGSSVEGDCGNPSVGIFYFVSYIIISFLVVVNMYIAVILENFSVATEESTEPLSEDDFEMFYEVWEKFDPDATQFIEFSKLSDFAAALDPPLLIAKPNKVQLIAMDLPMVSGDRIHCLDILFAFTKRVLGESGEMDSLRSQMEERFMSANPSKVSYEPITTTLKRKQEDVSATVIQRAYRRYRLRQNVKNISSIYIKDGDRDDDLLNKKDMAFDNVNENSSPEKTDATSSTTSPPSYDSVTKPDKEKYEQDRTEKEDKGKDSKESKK
T3 sequence (Q12809 whole entry): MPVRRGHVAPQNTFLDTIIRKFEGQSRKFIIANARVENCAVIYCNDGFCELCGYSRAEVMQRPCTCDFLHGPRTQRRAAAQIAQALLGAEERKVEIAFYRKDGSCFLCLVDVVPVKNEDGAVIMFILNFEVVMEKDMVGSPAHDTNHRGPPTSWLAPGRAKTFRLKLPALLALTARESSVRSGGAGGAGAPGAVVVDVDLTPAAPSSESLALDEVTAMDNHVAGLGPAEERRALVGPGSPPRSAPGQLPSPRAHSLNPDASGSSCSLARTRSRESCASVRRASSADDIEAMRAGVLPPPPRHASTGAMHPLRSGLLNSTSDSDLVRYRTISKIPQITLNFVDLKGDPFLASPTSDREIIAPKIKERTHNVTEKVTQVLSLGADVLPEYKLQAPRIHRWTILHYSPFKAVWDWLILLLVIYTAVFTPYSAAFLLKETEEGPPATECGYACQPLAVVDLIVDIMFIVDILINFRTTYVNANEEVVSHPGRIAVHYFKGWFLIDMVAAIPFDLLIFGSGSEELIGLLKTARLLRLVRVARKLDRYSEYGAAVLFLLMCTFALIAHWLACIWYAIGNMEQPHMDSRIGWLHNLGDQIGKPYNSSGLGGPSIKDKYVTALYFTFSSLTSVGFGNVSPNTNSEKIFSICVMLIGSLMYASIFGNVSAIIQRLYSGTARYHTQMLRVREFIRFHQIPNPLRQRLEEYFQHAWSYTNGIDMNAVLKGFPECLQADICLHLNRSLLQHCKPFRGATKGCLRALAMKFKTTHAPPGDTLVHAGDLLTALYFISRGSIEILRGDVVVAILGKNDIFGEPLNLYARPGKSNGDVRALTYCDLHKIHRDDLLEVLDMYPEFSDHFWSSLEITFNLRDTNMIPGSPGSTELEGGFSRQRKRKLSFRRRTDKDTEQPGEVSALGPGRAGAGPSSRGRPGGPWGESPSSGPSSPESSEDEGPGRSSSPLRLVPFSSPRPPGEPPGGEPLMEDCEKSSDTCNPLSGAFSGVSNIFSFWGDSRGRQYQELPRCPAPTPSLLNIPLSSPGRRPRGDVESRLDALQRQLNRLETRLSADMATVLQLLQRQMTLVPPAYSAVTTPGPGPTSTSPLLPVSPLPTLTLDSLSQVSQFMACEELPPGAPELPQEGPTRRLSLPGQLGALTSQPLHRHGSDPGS
T2 sequence (Q9Y5Y9 whole entry): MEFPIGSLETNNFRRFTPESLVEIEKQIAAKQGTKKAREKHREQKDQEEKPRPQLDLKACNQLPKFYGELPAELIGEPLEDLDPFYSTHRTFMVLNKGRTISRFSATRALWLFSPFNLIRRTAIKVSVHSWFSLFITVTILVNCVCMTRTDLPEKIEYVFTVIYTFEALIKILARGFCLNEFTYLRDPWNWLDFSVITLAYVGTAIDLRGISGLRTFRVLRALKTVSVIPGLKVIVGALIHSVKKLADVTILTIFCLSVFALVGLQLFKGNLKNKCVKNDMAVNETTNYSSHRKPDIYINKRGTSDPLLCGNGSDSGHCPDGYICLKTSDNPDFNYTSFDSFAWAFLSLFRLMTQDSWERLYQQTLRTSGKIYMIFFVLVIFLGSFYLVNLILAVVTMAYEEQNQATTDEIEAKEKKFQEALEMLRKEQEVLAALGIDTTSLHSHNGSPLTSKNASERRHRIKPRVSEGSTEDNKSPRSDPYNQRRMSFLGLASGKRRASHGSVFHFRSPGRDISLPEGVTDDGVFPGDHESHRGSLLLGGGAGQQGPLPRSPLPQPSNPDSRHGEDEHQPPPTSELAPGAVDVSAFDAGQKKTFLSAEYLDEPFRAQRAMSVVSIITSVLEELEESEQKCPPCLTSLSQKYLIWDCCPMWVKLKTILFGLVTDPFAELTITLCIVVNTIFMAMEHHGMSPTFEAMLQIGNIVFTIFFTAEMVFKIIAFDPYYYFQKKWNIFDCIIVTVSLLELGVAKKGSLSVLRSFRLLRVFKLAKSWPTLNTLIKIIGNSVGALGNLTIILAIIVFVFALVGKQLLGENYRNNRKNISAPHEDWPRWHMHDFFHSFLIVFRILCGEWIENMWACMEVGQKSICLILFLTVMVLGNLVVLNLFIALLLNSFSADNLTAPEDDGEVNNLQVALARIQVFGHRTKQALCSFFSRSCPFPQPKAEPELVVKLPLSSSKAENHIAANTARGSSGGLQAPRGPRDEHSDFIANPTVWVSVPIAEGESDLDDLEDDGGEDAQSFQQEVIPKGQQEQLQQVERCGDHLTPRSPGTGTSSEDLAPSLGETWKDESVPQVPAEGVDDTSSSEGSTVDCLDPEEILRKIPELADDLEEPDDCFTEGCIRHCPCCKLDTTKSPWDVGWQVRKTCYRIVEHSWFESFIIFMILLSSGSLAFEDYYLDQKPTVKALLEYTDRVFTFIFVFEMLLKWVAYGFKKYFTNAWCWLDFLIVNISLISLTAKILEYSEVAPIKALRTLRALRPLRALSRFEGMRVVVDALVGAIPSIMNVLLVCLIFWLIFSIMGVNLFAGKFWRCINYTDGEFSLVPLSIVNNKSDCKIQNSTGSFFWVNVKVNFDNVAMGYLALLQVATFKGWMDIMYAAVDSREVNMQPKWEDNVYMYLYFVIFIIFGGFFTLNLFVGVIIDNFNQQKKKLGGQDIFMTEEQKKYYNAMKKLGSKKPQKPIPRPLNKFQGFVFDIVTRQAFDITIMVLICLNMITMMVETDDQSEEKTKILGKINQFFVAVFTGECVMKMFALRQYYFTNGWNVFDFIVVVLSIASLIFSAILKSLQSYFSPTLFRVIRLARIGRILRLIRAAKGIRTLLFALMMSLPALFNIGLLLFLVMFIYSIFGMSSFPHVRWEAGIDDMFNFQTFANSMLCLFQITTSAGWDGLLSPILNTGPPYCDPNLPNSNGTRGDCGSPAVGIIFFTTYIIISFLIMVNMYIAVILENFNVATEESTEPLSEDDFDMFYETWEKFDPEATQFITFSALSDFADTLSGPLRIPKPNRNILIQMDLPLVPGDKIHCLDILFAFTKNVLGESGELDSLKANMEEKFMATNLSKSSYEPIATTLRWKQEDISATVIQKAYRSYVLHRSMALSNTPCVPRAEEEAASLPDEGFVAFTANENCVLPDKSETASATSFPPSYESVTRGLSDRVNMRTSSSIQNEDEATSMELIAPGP

Usually IC50 stands for the point on the concentration scale where inhibition reaches its midpoint. As to `NC(=O)CC(=O)N1C[C@H]2CN(c3cccc4c3cnn4-c3ccccc3F)C(=O)[C@H]2C1` [Example 44, 3-[(3aR,6aS)-5-[1-(2-fluorophenyl)-1H-indazol-4-yl]-4-oxohexahydropyrrolo[3,4-c]pyrrol-2(1H)-yl]-3-oxopropanamide], the IC50 on recombinant human Nav1.7 and on recombinant human Nav1.8 was greater than 20 µM in each case.

`CC(C)S(=O)(=O)N1C[C@@H]2CN(c3cccc4c3cnn4-c3ccccc3F)C(=O)[C@@H]2C1` [Example 24, (3aS,6aS)-2-[1-(2-fluorophenyl)-1H-indazol-4-yl]-5-(isopropylsulfonyl)hexahydropyrrolo[3,4-c]pyrrol-1 (2H)-one]: the results for the IC50 on recombinant human Nav1.7, at recombinant human Nav1.8 and against hERG channel (Kv11.1) were 1.98 µM, 0.59 µM and 17 µM, respectively. Further, the “OA MPE” value in assay [1] (OA dose 10 mg/kg) is 66%.

Turning to `CC(C)(O)C(=O)N1CC[C@H]2CN(c3cccc4c3cnn4-c3ccccc3F)C(=O)[C@H]21` [Example 49, (3aS,6aS)-5-[1-(2-fluorophenyl)-1H-indazol-4-yl]-1-(2-hydroxy-2-methylpropanoyl)hexahydropyrrolo[3,4-b]pyrrol-6(1H)-one], the results for the IC50 on recombinant human Nav1.7 and at recombinant human Nav1.8 were 0.397 µM and 4.03 µM, respectively.

Regarding `O=C1[C@H]2[C@H](CCN2C(=O)[C@@H]2CCOC2)CN1c1cccc2c1cnn2-c1ccccc1F` (mixture of isomers) [Example 3, (3aR*,6aR*)-5-[1-(2-fluorophenyl)-1H-indazol-4-yl]-1-[(3R)-tetrahydrofuran-3-ylcarbonyl]hexahydropyrrolo[3,4-b]pyrrol-6(1H)-one], the IC50 on recombinant human Nav1.7 was 1.93 µM; at recombinant human Nav1.8, 5.4 µM; against hERG channel (Kv11.1), greater than 30 µM.

Take `CC(C)(O)CC(=O)N1CC[C@H]2CN(c3cccc4c3cnn4-c3ccccc3F)C(=O)[C@H]21` (single isomer, unassigned) [Example 2]: the values for the IC50 on recombinant human Nav1.8 and on hERG channel (Kv11.1) were 2.38 µM and greater than 30 µM, respectively. Further, in assay [1] (OA dose 30 mg/kg), the “OA MPE” value was 62%.

In the case of `O=C(C1CCOC1)N1C[C@@H]2CN(c3cccc4c3cnn4-c3ccccc3F)C(=O)[C@@H]2C1` (stereo partly drawn) [Example 32, (3aR,6aS)-2-[1-(2-fluorophenyl)-1H-indazol-4-yl]-5-(tetrahydrofuran-3-ylcarbonyl)hexahydropyrrolo[3,4-c]pyrrol-1(2H)-one], the IC50 worked out at 1.69 µM at recombinant human Nav1.7 and 7.43 µM against hERG channel (Kv11.1). Further, in assay [1] (OA dose 10 mg/kg), the “OA MPE” value was found to be 9%.

Regarding `O=C1[C@H]2[C@H](CCN2C(=O)C2(O)CC2)CN1c1cccc2c1cnn2-c1ccccc1F` (relative stereo) [Example 5, rel-(3aR,6aR)-5-[1-(2-fluorophenyl)-1H-indazol-4-yl]-1-[(1-hydroxycyclopropyl)carbonyl]hexahydropyrrolo[3,4-b]pyrrol-6(1H)-one], the values for the IC50 on recombinant human Nav1.7 and at hERG channel (Kv11.1) were 1.68 µM and greater than 30 µM, respectively.

Consider `C[C@@H](O)CC(=O)N1CC[C@@H]2CN(c3cccc4c3cnn4-c3ccccc3F)C(=O)[C@@H]21` (mixture of isomers) [Example 7, (3aR*,6aR*)-5-[1-(2-fluorophenyl)-1H-indazol-4-yl]-1-[(3R)-3-hydroxybutanoyl]hexahydropyrrolo[3,4-b]pyrrol-6(1H)-one], for which the IC50 at recombinant human Nav1.7 was 3.19 µM; at recombinant human Nav1.8 it was 3.08 µM; against hERG channel (Kv11.1) it was greater than 30 µM.

Regarding `O=C(c1coc(CN2CCCC2)n1)N1C[C@@H]2CN(c3cccc4c3cnn4-c3ccccc3F)C(=O)[C@@H]2C1` [Example 31, (3aR,6aS)-2-[1-(2-fluorophenyl)-1H-indazol-4-yl]-5-{[2-(pyrrolidin-1-ylmethyl)-1,3-oxazol-4-yl]carbonyl}hexahydropyrrolo[3,4-c]pyrrol-1(2H)-one], the IC50 at recombinant human Nav1.7 worked out at 0.463 µM; against hERG channel (Kv11.1), 13.5 µM.

In the case of `CC(C)(O)C(=O)N1CC[C@@H]2CN(c3cccc4c3cnn4-c3ccccc3F)C(=O)[C@@H]21` (relative stereo) [Example 4, rel-(3aR,6aR)-5-[1-(2-fluorophenyl)-1H-indazol-4-yl]-1-(2-hydroxy-2-methylpropanoyl)hexahydropyrrolo[3,4-b]pyrrol-6(1H)-one], the IC50 on recombinant human Nav1.7 is 1.95 µM; on hERG channel (Kv11.1) it was greater than 30 µM.

For `CC(=O)N1CC[C@@H]2CN(c3cccc4c3cnn4-c3ccccc3F)C(=O)[C@@H]21` (relative stereo) [Example 6, rel-(3aR,6aR)-1-acetyl-5-[1-(2-fluorophenyl)-1H-indazol-4-yl]hexahydropyrrolo[3,4-b]pyrrol-6(1H)-one], the IC50 came to 13.1 µM at recombinant human Nav1.7 and 14.7 µM at recombinant human Nav1.8.

For `O=C1[C@H]2CN(C(=O)n3ccnc3)C[C@H]2CN1c1cccc2c1cnn2-c1ccccc1F` (relative stereo) [Example 12, rel-(3aR,6aR)-2-[1-(2-fluorophenyl)-1H-indazol-4-yl]-5-(1H-imidazol-1-ylcarbonyl)hexahydropyrrolo[3,4-c]pyrrol-1(2H)-one], the values for the IC50 on recombinant human Nav1.7 and at hERG channel (Kv11.1) were 3.06 µM and 13.7 µM, respectively.

Turning to `O=C(CCO)N1C[C@H]2CN(c3cccc4c3cnn4-c3ccccc3F)C(=O)[C@H]2C1` [Example 45, (3aS,6aR)-2-[1-(2-fluorophenyl)-1H-indazol-4-yl]-5-(3-hydroxypropanoyl)hexahydropyrrolo[3,4-c]pyrrol-1(2H)-one], the IC50 at recombinant human Nav1.7 and on recombinant human Nav1.8 was greater than 20 µM throughout.

As to `CC(C)(O)CC(=O)N1CC[C@@H]2CN(c3cccc4c3cnn4-c3ccccc3F)C(=O)[C@@H]21` (single isomer, unassigned) [Example 1], the IC50 on recombinant human Nav1.8 was 2.79 µM; against hERG channel (Kv11.1), greater than 30 µM. The “OA MPE” value in assay [1] (OA dose 30 mg/kg) worked out at 70%.

As for `CC(C)CS(=O)(=O)N1C[C@@H]2CN(c3cccc4c3cnn4-c3ccccc3F)C(=O)[C@@H]2C1` [Example 21, (3aS,6aS)-2-[1-(2-fluorophenyl)-1H-indazol-4-yl]-5-(isobutylsulfonyl)hexahydropyrrolo[3,4-c]pyrrol-1(2H)-one], the figures for the IC50 on recombinant human Nav1.7 and against hERG channel (Kv11.1) were 0.903 µM and 14.2 µM, respectively.
